Measured values published in patent US20140212981A1, “METHODS AND SYSTEMS FOR DETERMINING THE AMOUNT OF THIOPURINE METABOLITES IN A SAMPLE” (Laboratory Corporation of America Holdings, priority 2012, published 2014).
One block for each compound: values may come before it.

How the values were obtained:
[1] = cited from earlier work; for Therapeutic Range: metabolite level in red blood cells of subjects on thiopurine treatment, exemplary therapeutic levels
[2] = Acid-promoted conversion (hydrolysis) as a function of time; assay type: physicochemical; settings: FIG. 2C
Excerpt: The method comprises converting the one or more 6-thioguanine nucleotide compounds to 6-thioguanine or a 6-thioguanine hydrolysis product. The converting can be carried out in any manner known to those of skill in the art. In some embodiments, the converting comprises contacting the one or more 6-thioguanine nucleotide compounds with a sulfur-containing reducing agent to yield one or more reduced 6-thioguanine nucleotide compounds. Any suitable sulfur-containing reducing agent can be used. In some embodiments, the sulfur-containing reducing agent is dithioerythritol. In some such embodiments, the method comprises contacting the one or more reduced 6-thioguanine nucleotide compounds with an acidic hydrolyzing agent. Any suitable acidic hydrolyzing agent can be used. In some embodiments, the acidic hydrolyzing agent is perchloric acid, nitric acid, sulfuric acid, or a combination thereof. In some such embodiments, the acidic hydrolyzing agent is perchloric acid.
In some embodiments the hydrolysis of 6-methylmercaptopurine nucleotide compounds proceeds according to Scheme 2 below. […] The 6-methylmercaptopurine is readily hydrolyzed in the presence of acid to form a 6-methylmercaptopurine hydrolysis product comprising 4-amino-5-(methylthio) carbonyl imidazole. […]

Compound: 6-methylmercaptopurine nucleotides [6-MMPNs]
- Therapeutic Range [1]: <5700 pmol/8 × 10^8RBC
- Alert Values ([1]; metabolite level in red blood cells, levels in this range require modulation of therapy): >5700 pmol/8 × 10^8RBC

Compound: 6-thioguanine nucleotides [6-TGNs]
- Therapeutic Range [1]: 235 - 450 pmol/8 × 10^8RBC

- Time for acid-promoted conversion to hydrolysis product ([2]; 6-MMP to 6-MMP*, perchloric acid hydrolysis): less than 140 minutes
Compound: CSc1ncnc2nc[nH]c12 [6-MMP, 6-methylmercaptopurine]

- Rate of acid-promoted conversion relative to unlabeled 6-MMP ([2]; D3-6-MMP to D3-6-MMP*): same rate as unlabeled 6-MMP
Compound: [2H]C([2H])([2H])Sc1ncnc2[nH]cnc12 [D3-6-MMP]
